Assays:
[1] = molecular target: Sodium-dependent dopamine transporter (Homo sapiens, UniProt Q01959); experiment: Inhibition of radiolabeled dopamine reuptake at human DAT expressed in HEK293 cells; type: cell-based
[2] = molecular target: Voltage-gated inwardly rectifying potassium channel KCNH2 (Homo sapiens, UniProt Q12809); experiment: Displacement of [3H]dofetilide from human ERG expressed in HEK293 cells
[3] = molecular target: Sodium-dependent serotonin transporter (Homo sapiens, UniProt P31645); experiment: Inhibition of radiolabeled serotonin reuptake at human SERT expressed in HEK293 cells; type: cell-based
[4] = molecular target: Sodium-dependent noradrenaline transporter (Homo sapiens, UniProt P23975); experiment: Inhibition of radiolabeled noradrenaline reuptake at human NET expressed in HEK293 cells; type: cell-based
[5] = molecular target: T1, 5-hydroxytryptamine receptor 3A (Homo sapiens, UniProt P46098); experiment: Displacement of [3H]granisetron from human 5HT3 receptor expressed in HEK293 cells; type: cell-based
T1 sequence (P46098 whole entry): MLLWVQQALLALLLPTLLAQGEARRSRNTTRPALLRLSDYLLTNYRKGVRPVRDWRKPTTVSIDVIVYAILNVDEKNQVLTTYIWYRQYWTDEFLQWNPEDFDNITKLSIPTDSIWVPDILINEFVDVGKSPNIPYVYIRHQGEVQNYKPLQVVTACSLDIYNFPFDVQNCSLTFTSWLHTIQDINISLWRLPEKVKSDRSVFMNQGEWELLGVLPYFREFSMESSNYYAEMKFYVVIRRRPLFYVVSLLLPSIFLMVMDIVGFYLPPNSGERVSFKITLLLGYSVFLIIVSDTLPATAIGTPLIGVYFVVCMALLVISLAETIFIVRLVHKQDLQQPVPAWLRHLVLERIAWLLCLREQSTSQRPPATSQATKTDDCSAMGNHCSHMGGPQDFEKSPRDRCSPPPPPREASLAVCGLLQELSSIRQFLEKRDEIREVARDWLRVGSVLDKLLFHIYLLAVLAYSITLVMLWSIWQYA

Sodium-dependent serotonin transporter, sequence (P31645 whole entry): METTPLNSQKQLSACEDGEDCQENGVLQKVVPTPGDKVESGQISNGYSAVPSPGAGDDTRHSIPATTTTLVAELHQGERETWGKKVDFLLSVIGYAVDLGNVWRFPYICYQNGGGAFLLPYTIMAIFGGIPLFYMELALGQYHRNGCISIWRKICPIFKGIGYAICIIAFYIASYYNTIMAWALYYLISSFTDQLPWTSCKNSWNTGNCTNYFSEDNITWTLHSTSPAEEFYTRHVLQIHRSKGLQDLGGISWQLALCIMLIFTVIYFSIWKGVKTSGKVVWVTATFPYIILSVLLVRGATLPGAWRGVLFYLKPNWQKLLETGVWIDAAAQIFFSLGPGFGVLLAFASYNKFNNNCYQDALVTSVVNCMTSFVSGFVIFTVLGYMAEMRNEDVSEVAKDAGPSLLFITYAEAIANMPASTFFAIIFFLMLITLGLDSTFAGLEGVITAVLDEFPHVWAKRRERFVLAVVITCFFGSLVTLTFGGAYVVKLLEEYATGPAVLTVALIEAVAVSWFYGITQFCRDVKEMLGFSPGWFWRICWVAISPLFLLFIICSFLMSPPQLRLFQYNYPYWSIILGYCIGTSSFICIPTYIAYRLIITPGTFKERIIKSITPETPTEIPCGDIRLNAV
Voltage-gated inwardly rectifying potassium channel KCNH2, sequence (Q12809 whole entry): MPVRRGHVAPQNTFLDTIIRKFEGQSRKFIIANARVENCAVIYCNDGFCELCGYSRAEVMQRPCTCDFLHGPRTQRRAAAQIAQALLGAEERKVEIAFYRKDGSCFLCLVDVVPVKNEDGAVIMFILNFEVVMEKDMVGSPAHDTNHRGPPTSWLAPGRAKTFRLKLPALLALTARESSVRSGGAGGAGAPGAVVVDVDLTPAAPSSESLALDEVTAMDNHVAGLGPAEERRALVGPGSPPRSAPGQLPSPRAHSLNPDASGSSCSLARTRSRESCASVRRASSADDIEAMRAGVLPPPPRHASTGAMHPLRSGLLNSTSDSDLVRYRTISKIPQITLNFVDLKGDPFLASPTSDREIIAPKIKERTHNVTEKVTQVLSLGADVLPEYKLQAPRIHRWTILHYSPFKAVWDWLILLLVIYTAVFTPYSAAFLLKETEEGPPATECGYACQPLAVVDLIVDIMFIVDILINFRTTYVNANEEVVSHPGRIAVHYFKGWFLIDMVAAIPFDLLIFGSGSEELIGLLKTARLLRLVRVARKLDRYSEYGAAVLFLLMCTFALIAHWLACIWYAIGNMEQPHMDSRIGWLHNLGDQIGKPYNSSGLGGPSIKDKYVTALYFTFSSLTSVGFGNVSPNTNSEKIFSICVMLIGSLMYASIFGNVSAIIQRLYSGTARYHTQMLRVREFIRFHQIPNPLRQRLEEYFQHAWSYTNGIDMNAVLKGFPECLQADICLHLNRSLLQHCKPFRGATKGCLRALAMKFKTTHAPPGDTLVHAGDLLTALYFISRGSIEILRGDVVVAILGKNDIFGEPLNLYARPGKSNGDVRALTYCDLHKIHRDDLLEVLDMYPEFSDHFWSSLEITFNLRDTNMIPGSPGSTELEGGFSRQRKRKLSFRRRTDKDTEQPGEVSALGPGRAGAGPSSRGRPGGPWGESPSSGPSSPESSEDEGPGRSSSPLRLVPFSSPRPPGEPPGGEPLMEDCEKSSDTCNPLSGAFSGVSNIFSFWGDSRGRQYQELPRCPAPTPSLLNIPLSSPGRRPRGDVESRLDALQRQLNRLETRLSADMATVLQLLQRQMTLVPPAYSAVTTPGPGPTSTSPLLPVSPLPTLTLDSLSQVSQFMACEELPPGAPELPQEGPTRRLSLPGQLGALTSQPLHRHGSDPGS
Sodium-dependent dopamine transporter, sequence (Q01959 whole entry): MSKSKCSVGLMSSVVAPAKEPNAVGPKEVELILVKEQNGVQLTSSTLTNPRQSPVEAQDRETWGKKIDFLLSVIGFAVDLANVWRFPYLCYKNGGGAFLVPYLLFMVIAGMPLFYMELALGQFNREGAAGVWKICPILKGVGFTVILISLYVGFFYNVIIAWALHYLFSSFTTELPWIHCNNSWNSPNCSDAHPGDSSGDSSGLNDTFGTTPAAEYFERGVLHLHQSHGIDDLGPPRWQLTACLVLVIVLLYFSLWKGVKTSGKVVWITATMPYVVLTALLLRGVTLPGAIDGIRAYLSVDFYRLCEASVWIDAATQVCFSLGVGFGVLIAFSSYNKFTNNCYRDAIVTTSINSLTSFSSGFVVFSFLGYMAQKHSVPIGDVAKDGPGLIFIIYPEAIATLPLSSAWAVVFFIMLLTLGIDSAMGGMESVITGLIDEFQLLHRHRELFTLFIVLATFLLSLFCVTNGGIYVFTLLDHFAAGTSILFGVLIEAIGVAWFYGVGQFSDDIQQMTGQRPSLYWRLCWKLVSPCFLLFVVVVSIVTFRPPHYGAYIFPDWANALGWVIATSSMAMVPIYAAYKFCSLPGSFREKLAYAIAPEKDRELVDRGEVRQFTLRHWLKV
Sodium-dependent noradrenaline transporter, sequence (P23975 whole entry): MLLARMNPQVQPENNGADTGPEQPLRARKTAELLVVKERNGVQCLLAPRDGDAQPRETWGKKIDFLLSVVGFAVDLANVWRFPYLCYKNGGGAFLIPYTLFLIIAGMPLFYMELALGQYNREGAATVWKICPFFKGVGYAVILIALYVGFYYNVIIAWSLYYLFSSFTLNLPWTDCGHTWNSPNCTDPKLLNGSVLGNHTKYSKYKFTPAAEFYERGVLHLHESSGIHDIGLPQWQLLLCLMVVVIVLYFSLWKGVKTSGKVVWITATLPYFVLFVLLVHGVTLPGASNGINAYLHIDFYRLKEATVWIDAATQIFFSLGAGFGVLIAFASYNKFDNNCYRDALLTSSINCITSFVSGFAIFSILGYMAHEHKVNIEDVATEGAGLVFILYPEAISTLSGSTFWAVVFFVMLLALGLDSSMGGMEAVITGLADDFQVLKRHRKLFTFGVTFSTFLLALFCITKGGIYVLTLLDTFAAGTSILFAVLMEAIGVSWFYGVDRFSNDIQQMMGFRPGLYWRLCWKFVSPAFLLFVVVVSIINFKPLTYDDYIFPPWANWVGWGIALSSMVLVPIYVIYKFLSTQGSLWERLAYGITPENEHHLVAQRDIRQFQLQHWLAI

IC50 [1] [µM] | IC50 [3] [µM] | IC50 [4] [µM] | Ki [5] [µM] | SMILES | Ki [2] [µM]
3.8 | 0.02 | 1.2 |  | c1ccc2cc(CO[C@@H]3CCNC3)ccc2c1 | 16.4
24 | 0.011 | 10.5 |  | Fc1ccc2cc(CCN3CCNCC3)ccc2c1 | 8.5
8.8 | 0.003 | 4.4 | 0.404 | N#Cc1ccc2ccc(OCC3CCNCC3)cc2c1 | 3.5
 | 0.037 | 0.2 |  | N#Cc1ccc2cc(OC[C@H]3CCNC3)ccc2c1 | 
3 | 0.119 | 3 |  | CN(Cc1ccc2ccccc2c1)[C@@H]1CCNC1 | 
15 | 0.023 | 2.9 |  | c1ccc2cc(CO[C@H]3CCNC3)ccc2c1 | 15.7
19 | 0.014 | 40 |  | CCCCN(C1CCNCC1)S(=O)(=O)c1ccc2ccccc2c1 | 0.716
2.1 | 0.004 | 10.6 |  | Fc1ccc2cc(CO[C@@H]3CCNC3)ccc2c1 | 10.3
0.861 | 0.003 | 6.8 |  | N#Cc1ccc2cc(CO[C@H]3CCNC3)ccc2c1 | 4.5
 | 0.042 | 0.772 |  | N#Cc1ccc2cc(OC[C@@H]3CCNC3)ccc2c1 | 
> 31 | 0.004 | 8.4 |  | Cc1c(CCN2CCNCC2)ccc2cc(F)ccc12 | 10.1
7.7 | 0.013 | 5.4 |  | CN(Cc1ccc2ccccc2c1)[C@H]1CCNC1 | > 5
 | > 0.4 |  |  | CN([C@H]1CCNC1)S(=O)(=O)c1ccc2ccccc2c1 | 
 | 0.005 | 0.827 | > 10 | COCC(Oc1ccc2ccccc2c1)C1CCNCC1 (racemic) | 
> 30 | 0.016 | 5.6 |  | CCCCN([C@H]1CCNC1)S(=O)(=O)c1ccc2ccccc2c1 | 0.412

Further lines, the compound ahead of its results:

SMILES | IC50 [1] [µM] | IC50 [3] [µM] | IC50 [4] [µM] | Ki [5] [µM] | Ki [2] [µM]
CC(C)CN(Cc1ccc2ccccc2c1)[C@@H]1CCNC1 | 0.066 | 0.005 | 0.08 |  | 
c1ccc2cc(CN(C3CCC3)C3CCNCC3)ccc2c1 | 0.21 | 0.002 | 1.5 |  | 
c1ccc2cc(CCN3CCNCC3)ccc2c1 |  | 0.088 |  |  | 
c1ccc2cc(OCC3CCNCC3)ccc2c1 | > 7 | 0.008 | 1.8 | 0.311 | 
CCCCN(Cc1ccc2ccccc2c1)[C@H]1CCNC1 | 0.088 | 0.0003 | 0.08 |  | 
CN([C@@H]1CCNC1)S(=O)(=O)c1ccc2ccccc2c1 |  | 0.138 | 3 |  | 
N#Cc1ccc2cc(OCC3CCNCC3)ccc2c1 | 6 | 0.015 | 1.9 |  | 
CCN(C1CCNCC1)S(=O)(=O)c1ccc2ccccc2c1 | > 10 | > 0.4 | > 10 |  | 
c1ccc2cc(COC3CCNCC3)ccc2c1 [LITOXETINE] | 1.3 | 0.006 | 6.5 |  | 
c1ccc2cc(OCC3CCNC3)ccc2c1 (racemic) | 1 | 0.025 | 1.4 |  | > 5.5
CCN([C@@H]1CCNC1)S(=O)(=O)c1ccc2ccccc2c1 | > 30 | 0.03 | 2.6 |  | 

From ChEMBL document CHEMBL1153958, “Design and optimization of selective serotonin re-uptake inhibitors with high synthetic accessibility. Part 1” (Bioorg Med Chem Lett, 2009)
